Usually IC50 stands for the concentration needed to halve the response being measured. A lower IC50 goes with higher potency.

The target of the assay is T1, CRTH2 (DP2) (Homo sapiens, UniProt Q9Y5Y4).
T1 construct: host or cells: CHO cells
T1 sequence (Q9Y5Y4 1-395): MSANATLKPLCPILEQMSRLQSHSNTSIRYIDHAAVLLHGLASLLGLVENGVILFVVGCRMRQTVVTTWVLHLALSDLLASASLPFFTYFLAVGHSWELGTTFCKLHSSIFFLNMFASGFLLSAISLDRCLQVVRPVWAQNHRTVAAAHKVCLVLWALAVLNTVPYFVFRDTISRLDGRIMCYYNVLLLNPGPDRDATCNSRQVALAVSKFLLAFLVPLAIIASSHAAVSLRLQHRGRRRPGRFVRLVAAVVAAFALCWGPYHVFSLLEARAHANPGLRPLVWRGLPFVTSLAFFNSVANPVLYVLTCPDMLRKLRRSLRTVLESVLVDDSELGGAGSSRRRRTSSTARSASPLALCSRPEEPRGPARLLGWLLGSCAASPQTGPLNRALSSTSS
The experiment in a line: Radioligand binding Scintillation Proximity Assay ([3H]PGD2, hCRTH2-CHO cell membranes). The settings on record: 1.5 nM [3H]PGD2, hCRTH2-CHO cell membranes, SPA. How it is done:
Adherent CHO cells expressing hCRTH2 (Euroscreen, Belgium) were cultured in 225 cm^2 cell culture flasks (Corning, USA) in 30 ml of medium. After two rinses of phosphate buffered saline (PBS), cells were harvested in 10 ml of PBS containing 1 mM EDTA, centrifuged at 500×g for 5 min at 4° C. and frozen at −80° C. The pellet was re-suspended in 50 mM Tris-HCl, pH 7.4, 2 mM EDTA, 250 mM Sucrose, containing protease inhibitor cocktail tablets, (Complete EDTA-free, Roche, Germany) and incubated 30 min at 4° C. Cells were disrupted by nitrogen cavitation (Parr Instruments, USA) at 4° C. (800 p.s.i. for 30 min), and centrifuged at 500×g for 10 min at 4° C. Pellet containing nuclei and cellular debris was discarded and supernatant was centrifuged 60 min at 4° C. at 45000×g. Membrane pellet was re-suspended in storage buffer (10 mM HEPES/KOH pH 7.4, 1 mM EDTA, 250 mM sucrose, protease inhibitor cocktail tablets) using Dounce homogenization and frozen in liquid nitrogen, and stored at 80° C.
Non-specific binding was determined in the presence of 10 μM PGD2 (Cayman, USA). Competing Compounds of Formula (I) were diluted in dimethylsulphoxide so that the total volume of dimethylsulfoxide was kept constant at 1% dimethylsulphoxide (Me2SO). Serial dilutions of […] were prepared and 10 μl each of the compounds of Formula (I) stock solutions were added to the binding assay reagents and incubated for 90 min with agitation at room temperature.
A general note: Scintillation proximity formats need no separation of bound from free tracer.
`CCC(=O)N(Cc1ccc(-c2cc[nH]n2)cc1)c1cccc(-c2nnn[nH]2)c1` [Example 66, N-[4-(1H-pyrazol-3-yl)benzyl]-N-[3-(1H-tetrazol-5-yl)phenyl]propanamide] returned an IC50 of 973 nM.
Next, `CCC(=O)N(Cc1cccc(-c2sc(C)nc2C)c1)c1cccc(-c2nnn[nH]2)c1` [Example 63, N-[3-(2,4-dimethyl-1,3-thiazol-5-yl)benzyl]-N-[3-(1H-tetrazol-5-yl)phenyl]propanamide]: 235 nM; `CCC(=O)N(Cc1cccc(C#CCO)c1)c1cccc(-c2nnn[nH]2)c1` [Example 48, N-[3-(3-hydroxyprop-1-yn-1-yl)benzyl]-N-[3-(1H-tetrazol-5-yl)phenyl]propanamide]: 1270 nM.
In turn, `CCCCC(=O)N(Cc1ccc(OC)cc1)c1cccc(-c2nnn[nH]2)c1` [Example 14, N-(4-methoxybenzyl)-N-[3-(1H-tetrazol-5-yl)phenyl]pentanamide] returned an IC50 of 61 nM.
Next, `CCCCC(=O)N(Cc1ccc2ccccc2c1)c1cccc(-c2nnn[nH]2)c1` [Example 3, N-(2-naphthylmethyl)-N-[3-(1H-tetrazol-5-yl)phenyl]pentanamide]: 49 nM.
Next, `Cc1ccc(CCC(=O)N(Cc2ccc(S(C)(=O)=O)cc2)c2cc(F)cc(-c3nnn[nH]3)c2)cc1` [Example 107, N-[3-fluoro-5-(1H-tetrazol-5-yl)phenyl]-3-(4-methylphenyl)-N-[4-(methylsulfonyl)benzyl]propanamide]: 2.9 nM; `CCCCC(=O)N(Cc1cccc(OC(F)(F)F)c1)c1cc(F)cc(-c2nnn[nH]2)c1` [Example 29, N-[3-fluoro-5-(1H-tetrazol-5-yl)phenyl]-N-[3-(trifluoromethoxy)benzyl]pentanamide]: 5.2 nM; `CCCCC(=O)N(Cc1ccc(O)cc1)c1cccc(-c2nnn[nH]2)c1` [Example 74, N-(4-hydroxybenzyl)-N-[3-(1H-tetrazol-5-yl)phenyl]pentanamide]: 169 nM.
Next, `CCC(=O)N(Cc1ccccc1F)c1cccc(-c2nnn[nH]2)c1` [Example 33, N-(2-fluorobenzyl)-N-[3-(1H-tetrazol-5-yl)phenyl]propanamide]: 1160 nM.
As for `CCC(=O)N(Cc1ccc(-c2cccc(S(=O)(=O)NCCO)c2)cc1)c1cc(F)cc(-c2nnn[nH]2)c1` [Example 92, N-[3-fluoro-5-(1H-tetrazol-5-yl)phenyl]-N-[(3′-{[(2-hydroxyethyl)amino]sulfonyl}biphenyl-4-yl)methyl]propanamide], the IC50 worked out at 160 nM.
As to `CCC(=O)N(Cc1ccc2ccccc2n1)c1cc(F)cc(-c2nnn[nH]2)c1` [Example 80, N-[3-fluoro-5-(1H-tetrazol-5-yl)phenyl]-N-(quinolin-2-ylmethyl)propanamide], the IC50 is 65 nM.
Next, `CCC(=O)N(Cc1cccc(SC(F)(F)F)c1)c1cc(F)cc(-c2nnn[nH]2)c1` [Example 77, N-[3-fluoro-5-(1H-tetrazol-5-yl)phenyl]-N-{3-[(trifluoromethyl)thio]benzyl}propanamide]: 16 nM; `CCC(=O)N(Cc1ccc(-c2cn(C)nc2C)cc1)c1cc(F)cc(-c2nnn[nH]2)c1` [Example 88, N-[4-(1,3-dimethyl-1H-pyrazol-4-yl)benzyl]-N-[3-fluoro-5-(1H-tetrazol-5-yl)phenyl]propanamide]: 21 nM; `CCC(=O)N(Cc1cccc(C#CC(C)(C)C)c1)c1cccc(-c2nnn[nH]2)c1` [Example 50, N-[3-(3,3-dimethylbut-1-yn-1-yl)benzyl]-N-[3-(1H-tetrazol-5-yl)phenyl]propanamide]: 1300 nM.
Next, `CC(C)CC(=O)N(Cc1ccc2c(c1)OCCO2)c1cc(-c2nnn[nH]2)ccc1F` [Example 7, N-(2,3-dihydro-1,4-benzodioxin-6-ylmethyl)-N-[2-fluoro-5-(1H-tetrazol-5-yl)phenyl]-3-methylbutanamide]: 7.1 nM; `CCC(=O)N(Cc1ccc(SC(F)(F)F)cc1)c1cc(F)cc(-c2nnn[nH]2)c1` [Example 82, N-[3-fluoro-5-(1H-tetrazol-5-yl)phenyl]-N-{4-[(trifluoromethyl)thio]benzyl}propanamide]: 2.6 nM.
The result for `CCC(=O)N(Cc1ccc(F)cc1)c1cccc(-c2nnn[nH]2)c1` [Example 31, N-(4-fluorobenzyl)-N-[3-(1H-tetrazol-5-yl)phenyl]propanamide] reads 1540 nM.
For `CCC(=O)N(Cc1ccc(-c2ccccc2Cl)cc1)c1cc(F)cc(-c2nnn[nH]2)c1` [Example 98, N-[(2′-chlorobiphenyl-4-yl)methyl]-N-[3-fluoro-5-(1H-tetrazol-5-yl)phenyl]propanamide], the IC50 was found to be 31 nM. Compared with the last molecule, the IC50 is about 50-fold lower.
Molecule `CCC(=O)N(Cc1ccc2c(c1)OCCO2)c1cccc(-c2nnn[nH]2)c1` [Example 20, N-(2,3-dihydro-1,4-benzodioxin-6-ylmethyl)-N-[3-(1H-tetrazol-5-yl)phenyl]propanamide] had an IC50 of 51 nM. This IC50 lies about 1.6-fold higher than the previous one.
Next, `CCC(=O)N(Cc1ccc(OC(F)(F)F)cc1)c1cccc(-c2nnn[nH]2)c1` [Example 22, N-[3-(1H-tetrazol-5-yl)phenyl]-N-[4-(trifluoromethoxy)benzyl]propanamide]: 132 nM; `CCC(=O)N(Cc1cccc(-c2cnoc2)c1)c1cccc(-c2nnn[nH]2)c1` [Example 62, N-(3-isoxazol-4-ylbenzyl)-N-[3-(1H-tetrazol-5-yl)phenyl]propanamide]: 769 nM.
The result for `CCC(=O)N(Cc1cccc(-c2ccncc2)c1)c1cc(F)cc(-c2nnn[nH]2)c1` [Example 83, N-[3-fluoro-5-(1H-tetrazol-5-yl)phenyl]-N-(3-pyridin-4-ylbenzyl)propanamide] reads 25 nM; that for `CCC(=O)N(Cc1cccc(-c2ccncc2)c1)c1cccc(-c2nnn[nH]2)c1` [Example 96, N-(3-pyridin-4-ylbenzyl)-N-[3-(1H-tetrazol-5-yl)phenyl]propanamide], 330 nM.
Next, `CCCC(=O)N(Cc1ccc2c(c1)OCCO2)c1cc(-c2nnn[nH]2)ccc1F` [Example 8, N-(2,3-dihydro-1,4-benzodioxin-6-ylmethyl)-N-[2-fluoro-5-(1H-tetrazol-5-yl)phenyl]butanamide]: 6.3 nM; `CS(=O)(=O)c1ccc(CN(C(=O)c2cccnc2)c2cc(F)cc(-c3nnn[nH]3)c2)cc1` [Example 116, N-[3-fluoro-5-(1H-tetrazol-5-yl)phenyl]-N-[4-(methylsulfonyl)benzyl]nicotinamide]: 4.6 nM; `CCC(=O)N(Cc1ccc(OC(F)(F)F)cc1)c1cc(F)cc(-c2nnn[nH]2)c1` [Example 36, N-[3-fluoro-5-(1H-tetrazol-5-yl)phenyl]-N-[4-(trifluoromethoxy)benzyl]propanamide]: 9.3 nM.
In turn, `CCC(=O)N(Cc1ccc(O)cc1)c1cc(F)cc(-c2nnn[nH]2)c1` [Example 114, N-[3-fluoro-5-(1H-tetrazol-5-yl)phenyl]-N-(4-hydroxybenzyl)propanamide] had an IC50 of 25 nM.
Next, `C#Cc1cccc(CN(C(C)=O)c2cc(-c3nnn[nH]3)ccc2F)c1` [Example 2, N-(3-ethynylbenzyl)-N-[2-fluoro-5-(1H-tetrazol-5-yl)phenyl]acetamide]: 175 nM.
Next, `CCCCC(=O)N(Cc1ccc2c(c1)OCCO2)c1cc(-c2nnn[nH]2)c(F)cc1F` [Example 10, N-[2,4-difluoro-5-(1H-tetrazol-5-yl)phenyl]-N-(2,3-dihydro-1,4-benzodioxin-6-ylmethyl)pentanamide]: 54 nM; `CCCCC(=O)N(Cc1cccs1)c1cccc(-c2nnn[nH]2)c1` [Example 16, N-[3-(1H-tetrazol-5-yl)phenyl]-N-(2-thienylmethyl)pentanamide]: 588 nM.
Consider `CCC(=O)N(Cc1ccc(-c2cccc(S(=O)(=O)N3CCOCC3)c2)cc1)c1cc(F)cc(-c2nnn[nH]2)c1` [Example 91, N-[3-fluoro-5-(1H-tetrazol-5-yl)phenyl]-N-{[3′-(morpholin-4-ylsulfonyl)biphenyl-4-yl]methyl}propanamide], for which the IC50 is 145 nM.
Turning to `CCC(=O)N(Cc1ccc(Cl)c(OC(F)(F)F)c1)c1cc(F)cc(-c2nnn[nH]2)c1` [Example 76, N-[4-chloro-3-(trifluoromethoxy)benzyl]-N-[3-fluoro-5-(1H-tetrazol-5-yl)phenyl]propanamide], the IC50 worked out at 18 nM.
The result for `CCC(=O)N(Cc1cccc(C)c1)c1cccc(-c2nnn[nH]2)c1` [Example 73, N-(3-methylbenzyl)-N-[3-(1H-tetrazol-5-yl)phenyl]propanamide] reads 662 nM.

These data come from US20120115869A1, “TETRAZOLE DERIVATIVES” (MERCK SERONO S.A., priority 2009, published 2012).
